Structures are written as SMILES.

The target in one data set is human PAI-1 (Homo sapiens, UniProt P05121). The data set can be described thus: Assay for determining the IC50 of inhibition of PAI-1 (antibody detection of active PAI-1 bound to tPA-coated plate). As to conditions: human PAI-1 50 ng/ml, pH 7.5. The class given is binding. Here is the method: Assay for determining the IC50 of inhibition of PAI-1. This assay is based upon the non-SDS dissociable interaction between tPA and active PAI-1. Assay plates are initially coated with human tPA (10 μg/ml). Test compounds are dissolved in DMSO at 10 mM, then diluted with physiologic buffer (pH 7.5) to a final concentration of 1-50 μM. The test compounds are incubated with human PAI-1 (50 ng/ml) for 15 minutes at room temperature. The tPA-coated plate is washed with a solution of 0.05% Tween 20 and 0.1% BSA, then the plate is blocked with a solution of 3% BSA. An aliquot of the test compound/PAI-1 solution is then added to the tPA-coated plate, incubated at room temperature for 1 hour, and washed. Active PAI-1 bound to the plate is assessed by adding an aliquot of a 1:1000 dilution of the 33B8 monoclonal antibody against human PAI-1, and incubating the plate at room temperature for 1 hour (Molecular Innovations, Royal Oak, Mich.). The plate is again washed, and a solution of goat anti-mouse IgG-alkaline phosphatase conjugate is added at a 1:50,000 dilution in goat serum. The plate is incubated 30 minutes at room temperature, washed, and a solution of alkaline phosphatase substrate is added. The plate is incubated 45 minutes at room temperature, and color development is determined at OD405 nm. The quantitation of active PAI-1 bound to tPA at varying concentrations of the test compound is used to determine the IC50. Results are analyzed using a logarithmic best-fit equation. The assay sensitivity is 5 ng/ml of human PAI-1 as determined from a standard curve ranging from 0-100 ng/ml.

Data set [1] has as its target T1, recombinant human plasminogen activator inhibitor-1 (PAI-1) (Homo sapiens, UniProt P05121).
T1 construct: purchased Molecular Innovations, Royal Oak, Mich
The data set can be described thus: Screening for PAI-1 inhibition (chromogenic residual tPA activity, Spectrozyme-tPA). In kind it is biochemical. As to conditions: 25 μM test compound; 140 nM PAI-1, 70 nM tPA, pH 6.6. Here is the method:
Screening for PAI-1 inhibition. Test compounds are dissolved in DMSO at a final concentration of 10 mM, then diluted 100× in physiologic buffer. The inhibitory assay is initiated by the addition of the test compound (1-100 μM final concentration, maximum DMSO concentration of 0.2%) in a pH 6.6 buffer containing 140 nM recombinant human plasminogen activator inhibitor-1 (PAI-1; Molecular Innovations, Royal Oak, Mich.). Following a 1 hour incubation at room temperature, 70 nM of recombinant human tissue plasminogen activator (tPA) is added, and the combination of the test compound, PAI-1 and tPA is incubated for an additional 30 minutes. Following the second incubation, Spectrozyme-tPA (American Diagnostica, Greenwich, Conn.), a chromogenic substrate for tPA, is added and absorbance read at 405 nm at 0 and 60 minutes. Relative PAI-1 inhibition is equal to the residual tPA activity in the presence of the test compounds and PAI-1. Control treatments include the complete inhibition of tPA by PAI-1 at the molar ratio employed (2:1), and the absence of any effect of the test compound on tPA alone.

T1 sequence (P05121 24-402): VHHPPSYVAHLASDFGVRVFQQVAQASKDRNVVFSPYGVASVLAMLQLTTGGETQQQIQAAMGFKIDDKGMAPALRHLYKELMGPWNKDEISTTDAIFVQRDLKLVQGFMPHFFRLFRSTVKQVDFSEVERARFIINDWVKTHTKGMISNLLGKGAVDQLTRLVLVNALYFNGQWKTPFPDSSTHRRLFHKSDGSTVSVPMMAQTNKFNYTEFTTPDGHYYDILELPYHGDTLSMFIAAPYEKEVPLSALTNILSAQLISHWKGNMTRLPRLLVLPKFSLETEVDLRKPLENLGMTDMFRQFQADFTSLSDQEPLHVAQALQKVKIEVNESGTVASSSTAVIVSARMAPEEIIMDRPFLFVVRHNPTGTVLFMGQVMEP
human PAI-1, sequence (P05121 24-402): as above

As usually defined, the IC50 is the concentration at which inhibition is half-maximal. Low readings indicate inhibition by little substance, high ones a need for much substance. The term melting point denotes the temperature, or range, at which the solid turns liquid. For `O=C(O)c1ccc(CO/N=C/c2cc3ccccc3n2Cc2ccccc2)cc1Br` [Compound 4, 4-[({[(1E)-(1-benzyl-1H-indol-2-yl)methylidene]amino}oxy)methyl]-2-bromobenzoic acid], the melting point lay in the range of 148 to 149 °C. On human PAI-1, this compound yielded an IC50 of 12.3 µM.

In turn, `CC(C)(C)c1ccc(C(=O)Nc2cc(OCCCO/N=C/c3cn(Cc4ccccc4)c4ccccc34)ccc2C(=O)O)cc1` [Compound 1, 4-[3-({[(1E)-(1-benzyl-1H-indol-3-yl)methylidene]amino}oxy)propoxy]-2-[(4-tert-butylbenzoyl)amino]benzoic acid] returned an IC50 against human PAI-1 of 11.8 µM.

In general, inhibition refers to the relative decrease from the control value, in per cent. As to `Cc1c(/C=N/OCCCOc2ccc(CC(=O)O)cc2)c2ccccc2n1C` [Compound 7, {4-[3-({[(1E)-(1,2-dimethyl-1H-indol-3-yl)methylidene]amino}oxy)propoxy]phenyl}acetic acid], the inhibition at 25 µM in data set [1] was found to be 54%.

With `Cc1c(/C=N/OCc2ccc(C(=O)O)c(Br)c2)c2ccccc2n1C` [Compound 9, 2-bromo-4-[({[(1E)-(1,2-dimethyl-1H-indol-3-yl)methylidene]amino}oxy)methyl]benzoic acid], the melting point was in the range of 165 to 166 °C. Besides, the inhibition at 25 µM in data set [1] turned out to be 34%.

With `O=C(O)c1ccc(OCCCO/N=C/c2cc3ccccc3n2Cc2ccccc2)cc1O` [Compound 5, 4-[3-({[(1E)-(1-benzyl-1H-indol-2-yl)methylidene]amino}oxy)propoxy]-2-hydroxybenzoic acid], the melting point was 175 to 176 °C (dec.). Also, at human PAI-1, the IC50 worked out at 22.4 µM.

At human PAI-1, `O=C(O)c1ccc(CO/N=C/c2cn(Cc3ccccc3)c3ccccc23)cc1Br` [Compound 3, 4-[({[(1E)-(1-benzyl-1H-indol-3-yl)methylidene]amino}oxy)methyl]-2-bromobenzoic acid] registered an IC50 of 29.2 µM.

In turn, `O=C(O)c1ccc(OCCCO/N=C/c2cc3ccccc3n2Cc2ccccc2)c(-c2ccc(C(F)(F)F)cc2)c1` [Compound 8, 6-[3-({[(1E)-(1-benzyl-1H-indol-2-yl)methylidene]amino}oxy)propoxy]-4′-(trifluoromethyl)-1,1′-biphenyl-3-carboxylic acid] yielded a melting point of 196 to 197 °C. Also, the inhibition at 25 µM in data set [1] was found to be 100%.

As to `O=C(O)c1ccc(OCCCO/N=C/c2cn(Cc3ccccc3)c3ccccc23)c(-c2ccc(C(F)(F)F)cc2)c1` [Compound 6, 6-[3-({[(1E)-(1-benzyl-1H-indol-3-yl)methylidene]amino}oxy)propoxy]-4′-(trifluoromethyl)-1,1′-biphenyl-3-carboxylic acid], the melting point was in the range of 193 to 194 °C. The inhibition at 25 µM in data set [1] was found to be 55%.

On to `O=C(O)c1ccc(OCCCO/N=C/c2cn(Cc3ccccc3)c3ccccc23)cc1O` [Compound 2, 4-[3-({[(1E)-(1-benzyl-1H-indol-3-yl)methylidene]amino}oxy)propoxy]-2-hydroxybenzoic acid], for which, at human PAI-1, the IC50 amounted to 21.6 µM.

The record behind these values is patent US7342039B2, “Substituted indole oximes” (Wyeth, priority 2003, dated 2008).
